Results from patent publication US8507544B2, “Bi-aryl amide compounds as CRTh2 receptor modulators” (Astrazeneca AB, priority 2007, dated 2013).
Counter-ions that a name gives are not always drawn. Blank lines part the entries; values can stand above or below the molecule they belong to.

Tests used:
human hepatocytes = assay: Determination of metabolic intrinsic clearance (CLint) using human hepatocytes; assay type: in vitro ADME; conditions: 1 μM substrate, 37° C., n=3
Protocol: Compound stocks were prepared in dimethyl sulfoxide at 100-fold incubation concentration (100 μM). 10 μl of this 100 μM stock was added to a vial containing 490 μl of hepatocyte suspension buffer (without serum). A vial containing either human hepatocytes at a concentration of 2 million viable cells/ml was pre-incubated for 5 min in a shaking (80 oscillations/min) water bath at 37° C. along with the vial containing the drug/buffer mix.
Reactions were initiated by adding 500 μl of hepatocyte suspension to the 500 μl of drug/buffer mix (giving a final substrate concentration of 1 μM at 1% v/v dimethyl sulfoxide). Aliquots (40 μl) were removed at 5, 15, 30, 45, 60, 75 90 & 120 min and reactions were quenched in 80 μl of ice-cold methanol. Samples were subsequently frozen for 1 h at −20° C. and then centrifuged at 2000 g for 20 min at 4° C. The supernatants were removed and analysed by MS/MS and Clint was estimated from the slope of a natural Log of MS/MS response versus time plot. Using physiological scaling factors to account for hepatocellularity and liver weight in the human (Ito and Houston, 2004) hepatic blood clearance was predicted (Clh) using the method outlined by Riley et al., 2005. Typical acid drugs showing an intrinsic clearance value in this assay of <2 μl/min/e^6 cells show robust half lives in man consistent with a once-daily dose intervals. […]

rhCRTh2 = biological target: T1, rhCRTh2 (Homo sapiens, UniProt Q9Y5Y4); assay: Ligand binding assay ([3H]PGD2, SPA, HEK cell membranes); conditions: [3H]PGD2 binding to HEK cell membranes containing CRTh2, RT 2 hours
T1 construct: expressed in transfected cells; host or cells: HEK cells (membrane preparation)
T1 sequence (Q9Y5Y4 1-395): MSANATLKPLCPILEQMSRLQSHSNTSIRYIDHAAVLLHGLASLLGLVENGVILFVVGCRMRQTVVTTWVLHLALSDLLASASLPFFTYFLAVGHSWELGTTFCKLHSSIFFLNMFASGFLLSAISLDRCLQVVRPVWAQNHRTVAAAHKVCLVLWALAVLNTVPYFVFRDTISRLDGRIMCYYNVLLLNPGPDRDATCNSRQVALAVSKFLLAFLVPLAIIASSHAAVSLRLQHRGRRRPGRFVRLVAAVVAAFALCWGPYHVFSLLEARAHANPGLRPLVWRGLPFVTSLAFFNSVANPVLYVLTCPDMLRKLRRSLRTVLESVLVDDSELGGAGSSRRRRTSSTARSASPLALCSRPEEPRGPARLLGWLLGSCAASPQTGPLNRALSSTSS
Protocol: HEK cells expressing rhCRTh2/Gα16 were routinely maintained in DMEM containing 10% Foetal Bovine Serum (HyClone), 1 mg/ml geneticin, 2 mM L-glutamine and 1% non-essential amino acids. For the preparation of membranes, the adherent transfected HEKcells were grown to confluence in two layer tissue culture factories (Fisher, catalogue number TKT-170-[MUT]). Maximal levels of receptor expression were induced by addition of 500 mM sodium butyrate for the last 18 hours of culture. The adherent cells were washed once with phosphate buffered saline (PBS, 50 ml per cell factory) and detached by the addition of 50 ml per cell factory of ice-cold membrane homogenisation buffer [20 mM HEPES (pH 7.4), 01. mM dithiothreitol, 1 mM EDTA, 0.1 mM phenyl methyl sulphonyl fluoride and 100 μg/ml bacitracin]. […] The final pellet was re-suspended in 4 ml of membrane homogenisation buffer per cell factory used and the protein content determined. […] (The optimum coating concentrations were determined for each batch of membranes) The beads were pelleted by centrifugation (800×g for 7 minutes at 4° C.), washed once with assay buffer (50 mM HEPES pH 7.4 containing 5 mM magnesium chloride) and finally re-suspended in assay buffer at a bead concentration of 10 mg/ml. […] The assay plate was incubated at RT for 2 hours and counted on a Wallac Microbeta liquid scintillation counter (1 minute per well).

[1] = Water uptake by GVS (gravimetric vapour sorption); assay type: physicochemical; conditions: between RH of 0% -80%, as measured by GVS
Protocol: • XRPD data were collected using either a PANalytical CubiX PRO machine or a Philips X-Pert MPD machine. • XRPD—PANalytical CubiX PRO • Data was collected with a PANalytical CubiX PRO machine in θ-θ configuration over the scan range 2° to 40° 2θ with 100-second exposure per 0.02° increment. The X-rays were generated by a copper long-fine focus tube operated at 45 kV and 40 mA. The wavelength of the copper X-rays was 1.5418 Å. The data was collected on zero background holders on which ˜2 mg of the compound was placed. The holder was made from a single crystal of silicon, which had been cut along a non-diffracting plane and then polished on an optically flat finish. […] The X-rays incident upon this surface were negated by Bragg extinction. • DSC thermograms were measured using a TA Q1000 Differential Scanning Calorimeter, with aluminium pans and pierced lids. […] The procedure was carried out under a flow of nitrogen gas (50 ml/min) and the temperature studied from 25 to 300° C. at a constant rate of temperature increase of 10° C. per minute. • GVS profiles were measured using a Dynamic Vapour Sorption DVS-1 instrument. The solid sample ca. 1-5 mg was placed into a glass vessel and the weight of the sample was recorded during a dual cycle step method (40 to 90 to 0 to 90 to 0% relative humidity (RH), in steps of 10% RH).

Clint (human hepatocytes): < 1 μl/min/e^6
pIC50 (rhCRTh2): 8.4
Compound: C[C@H](Oc1ccc(F)cc1-c1ccc(C(=O)N2CCCC2(C)C)c(Cl)c1)C(=O)O [Example 1, (2S)-2-({3′-chloro-4′-[(2,2-dimethylpyrrolidin-1-yl)carbonyl]-5-fluorobiphenyl-2-yl}oxy)propanoic acid]

water uptake ([1]; listed as example 2 polymorph A): 0.6%
Compound: C[C@H](Oc1ccc(F)cc1-c1ccc(C(=O)N2CCCC2(C)C)c(Cl)c1)C(=O)O [Example 2, (2S)-2-({3′-chloro-4′-[(2,2-dimethylpyrrolidin-1-yl)carbonyl]-5-fluorobiphenyl-2-yl}oxy)propanoic acid 2-methylpropan-2-amine salt]

water uptake ([1]; listed as example 4 polymorph A): 0.7%
Compound: C[C@H](Oc1ccc(F)cc1-c1ccc(C(=O)N2CCCC2(C)C)c(Cl)c1)C(=O)O [Example 4, (2S)-2-({3′-chloro-4′-[(2,2-dimethylpyrrolidin-1-yl)carbonyl]-5-fluorobiphenyl-2-yl}oxy)propanoic acid crystaline free acid]
